11 compounds from patent publication US20250206732A1, “COMPOUNDS AND METHODS FOR THE TARGETED DEGRADATION OF KRAS” (Arvinas Operations, Inc., priority 2022, published 2025) can be followed below.

The assay has as its target T1, AsPC-1 HiBiT-KRASG12D (Homo sapiens, UniProt P01116, G12D).
T1 construct: insert the HiBiT tag onto the N-terminus of one or more of the endogenous KRAS alleles; endogenous in cells; host or cells: AsPC-1 (ATCC CRL-1682), CRISPR-Cas9 knock-in clone, one tagged allele
The assay is described as follows: HiBiT degradation assay (G12D), AsPC-1 HiBiT-KRASG12D cells. Format: cell-based. To be noted: 24 hours treatment; for Dmax: ASPC1, AsPC-1 HiBiT-KRASG12D cells, maximum degradation observed; for DC50: AsPC-1 HiBiT-KRASG12D cells, HiBiT luminescence. In outline: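 Endogenous KRASG12D levels were measured via an N-terminal HiBiT tag knocked into AsPC-1 cells. Cells received compound titrations for 24 hours, and HiBiT luminescence was detected after a 45-minute lytic reagent incubation at room temperature.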
Background: The HiBiT peptide binds its large partner to form an active luciferase.

T1 sequence (P01116 1-188 isoform P01116-2 G12D): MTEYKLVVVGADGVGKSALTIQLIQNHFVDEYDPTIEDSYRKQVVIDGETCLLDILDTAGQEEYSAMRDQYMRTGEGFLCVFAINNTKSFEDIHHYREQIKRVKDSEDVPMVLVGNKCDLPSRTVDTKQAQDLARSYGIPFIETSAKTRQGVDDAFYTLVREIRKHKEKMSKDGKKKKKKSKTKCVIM

For `CCc1cccc2cc(O)cc(-c3ncc4c(N5CC6CCC(C5)N6)nc(OCCN5CCC(C(C)(C)N6CCN(c7cc([C@@H](C(=O)N8C[C@H](O)C[C@H]8C(=O)N[C@@H](C)c8ccc(-c9scnc9C)cc8)C(C)C)on7)CC6)CC5)nc4c3F)c12` (single isomer, unassigned) [Compound 254, (2S,4R)-1-[(2R*)-2-(3-{4-[2-(1-{2-[(4-{3,8-diazabicyclo[3.2.1]octan-3-yl}-7-(8-ethyl-3-hydroxynaphthalen-1-yl)-8-fluoropyrido[4,3-d]pyrimidin-2-yl)oxy]ethyl}piperidin-4-yl)propan-2-yl]piperazin-1-yl}-1,2-oxazol-5-yl)-3-methylbutanoyl]-4-hydroxy-N-[(1S)-1-[4-(4-methyl-1,3-thiazol-5-yl)phenyl]ethyl] pyrrolidine-2-carboxamide], the Dmax was in the range of 20 to 60% and the DC50 is 600 to 1000 nM. `Cc1ncsc1-c1ccc([C@H](C)NC(=O)[C@@H]2C[C@@H](O)CN2C(=O)[C@@H](c2cc(OC[C@@H]3CC[C@]4(COc5nc(N6CC7CCC(C6)N7)c6cnc(-c7cccc8ccc(F)c(F)c78)c(F)c6n5)CCCN34)no2)C(C)C)cc1` [Compound 61, (2S,4R)-1-[(2R)-2-(3-{[(3S,7aS)-7a-{[(4-{3,8-diazabicyclo[3.2.1]octan-3-yl}-7-(7,8-difluoronaphthalen-1-yl)-8-fluoropyrido[4,3-d]pyrimidin-2-yl)oxy]methyl}-hexahydro-1H-pyrrolizin-3-yl]methoxy}-1,2-oxazol-5-yl)-3-methylbutanoyl]-4-hydroxy-N-[(1S)-1-[4-(4-methyl-1,3-thiazol-5-yl)phenyl]ethyl]pyrrolidine-2-carboxamide] displayed a maximal degradation (Dmax) of 80 to 100% and a DC50 of less than 600 nM. For `CCc1cccc2cc(O)cc(-c3ncc4c(N5CC6CCC(C5)N6)nc(OC[C@]56CCCN5[C@H](COC(=O)N5CCN(c7cc([C@H](C(=O)N8C[C@H](O)C[C@H]8C(=O)N[C@@H](C)c8ccc(-c9scnc9C)cc8)C(C)C)on7)[C@@H](C)C5)CC6)nc4c3F)c12` [Compound 123, [(3S,7aR)-7a-{[(4-{3,8-diazabicyclo[3.2.1]octan-3-yl}-7-(8-ethyl-3-hydroxynaphthalen-1-yl)-8-fluoropyrido[4,3-d]pyrimidin-2-yl)oxy]methyl}-hexahydro-1H-pyrrolizin-3-yl]methyl (3S)-4-{5-[(2R)-1-[(2S,4R)-4-hydroxy-2-{[(1S)-1-[4-(4-methyl-1,3-thiazol-5-yl)phenyl]ethyl]carbamoyl}pyrrolidin-1-yl]-3-methyl-1-oxobutan-2-yl]-1,2-oxazol-3-yl}-3-methylpiperazine-1-carboxylate], in that order: 80 to 100% and less than 600 nM. The corresponding values for `CCc1cccc2cc(O)cc(-c3ncc4c(N5CC6CCC(C5)N6)nc(OC[C@@]56CCCN5[C@H](COC(=O)N5CC(Oc7cc([C@@H](C(=O)N8C[C@H](O)C[C@H]8C(=O)N[C@@H](C)c8ccc(-c9scnc9C)cc8)C(C)C)on7)C5)CC6)nc4c3F)c12` [Compound 127, [(3S,7aS)-7a-{[(4-{3,8-diazabicyclo[3.2.1]octan-3-yl}-7-(8-ethyl-3-hydroxynaphthalen-1-yl)-8-fluoropyrido[4,3-d]pyrimidin-2-yl)oxy]methyl}-hexahydro-1H-pyrrolizin-3-yl]methyl 3-({5-[(2S)-1-[(2S,4R)-4-hydroxy-2-{[(1S)-1-[4-(4-methyl-1,3-thiazol-5-yl)phenyl]ethyl]carbamoyl}pyrrolidin-1-yl]-3-methyl-1-oxobutan-2-yl]-1,2-oxazol-3-yl}oxy)azetidine-1-carboxylate] are less than 20% and 600 to 1000 nM. For `CCc1cccc2cc(O)cc(-c3ncc4c(N5CC6CCC(C5)N6)nc(OC[C@@]56CCCN5[C@@H](COC(=O)N5CCN(c7cc([C@H](C(=O)N8C[C@H](O)C[C@H]8C(=O)N[C@@H](C)c8ccc(-c9scnc9C)cc8)C(C)C)on7)CC5)CC6)nc4c3F)c12` [Compound 106, [(3R,7aS)-7a-{[(4-{3,8-diazabicyclo[3.2.1]octan-3-yl}-7-(8-ethyl-3-hydroxynaphthalen-1-yl)-8-fluoropyrido[4,3-d]pyrimidin-2-yl)oxy]methyl}-hexahydro-1H-pyrrolizin-3-yl]methyl 4-{5-[(2R)-1-[(2S,4R)-4-hydroxy-2-{[(1S)-1-[4-(4-methyl-1,3-thiazol-5-yl)phenyl]ethyl]carbamoyl}pyrrolidin-1-yl]-3-methyl-1-oxobutan-2-yl]-1,2-oxazol-3-yl}piperazine-1-carboxylate], in that order: 80 to 100% and less than 600 nM.

`CCc1cccc2cc(O)cc(-c3ncc4c(N5CC6CCC(C5)N6)nc(OC[C@]56CCCN5[C@H](COC(=O)N5CC7(C5)CN(c5cc([C@@H](C(=O)N8C[C@H](O)C[C@H]8C(=O)N[C@@H](C)c8ccc(-c9scnc9C)cc8)C(C)C)on5)C7)CC6)nc4c3F)c12` [Compound 144, [(3S,7aR)-7a-{[(4-{3,8-diazabicyclo[3.2.1]octan-3-yl}-7-(8-ethyl-3-hydroxynaphthalen-1-yl)-8-fluoropyrido[4,3-d]pyrimidin-2-yl)oxy]methyl}-hexahydro-1H-pyrrolizin-3-yl]methyl 6-{5-[(2S)-1-[(2S,4R)-4-hydroxy-2-{[(1S)-1-[4-(4-methyl-1,3-thiazol-5-yl)phenyl]ethyl]carbamoyl}pyrrolidin-1-yl]-3-methyl-1-oxobutan-2-yl]-1,2-oxazol-3-yl}-2,6-diazaspiro[3.3]heptane-2-carboxylate] registered a Dmax of 20 to 60% and a 50% degradation concentration (DC50) of 600 to 1000 nM. The compound `CCc1cccc2cc(O)cc(-c3ncc4c(N5CCCCCC5)nc(OC[C@@]56CCCN5[C@H](COc5cc([C@@H](C(=O)N7C[C@H](O)C[C@H]7C(=O)N[C@@H](C)c7ccc(-c8scnc8C)cc7)C(C)C)on5)CC6)nc4c3F)c12` (single isomer, unassigned) [Compound 339] registered a DC50 greater than 3000 nM. As to `CCc1cccc2cc(O)cc(-c3ncc4c(N5CC6CCC(C5)N6)nc(OC[C@]56CCCN5[C@H](COC(=O)N5CCC(Oc7cc([C@H](C(=O)N8C[C@H](O)C[C@H]8C(=O)N[C@@H](C)c8ccc(-c9scnc9C)cc8)C(C)C)on7)CC5)CC6)nc4c3F)c12` [Compound 116, [(3S,7aR)-7a-{[(4-{3,8-diazabicyclo[3.2.1]octan-3-yl}-7-(8-ethyl-3-hydroxynaphthalen-1-yl)-8-fluoropyrido[4,3-d]pyrimidin-2-yl)oxy]methyl}-hexahydro-1H-pyrrolizin-3-yl]methyl 4-({5-[(2R)-1-[(2S,4R)-4-hydroxy-2-{[(1S)-1-[4-(4-methyl-1,3-thiazol-5-yl)phenyl]ethyl]carbamoyl}pyrrolidin-1-yl]-3-methyl-1-oxobutan-2-yl]-1,2-oxazol-3-yl}oxy)piperidine-1-carboxylate], the Dmax was in the range of 80 to 100% and the DC50 was less than 600 nM. The compound `CCc1cccc2cc(O)cc(-c3ncc4c(N5CC6CCC(C5)N6)nc(OCCN5CCC(Oc6cc([C@H](C(=O)N7C[C@H](O)C[C@H]7C(=O)N[C@@H](C)c7ccc(-c8scnc8C)cc7)C(C)C)on6)CC5)nc4c3F)c12` (relative stereo) [Compound 138, (2S,4R)-1-[(2R*)-2-{3-[(1-{2-[(4-{3,8-diazabicyclo[3.2.1]octan-3-yl}-7-(8-ethyl-3-hydroxynaphthalen-1-yl)-8-fluoropyrido[4,3-d]pyrimidin-2-yl)oxy]ethyl}piperidin-4-yl)oxy]-1,2-oxazol-5-yl}-3-methylbutanoyl]-4-hydroxy-N-[(1S)-1-[4-(4-methyl-1,3-thiazol-5-yl)phenyl]ethyl]pyrrolidine-2-carboxamide] gave a Dmax of 80 to 100% and a DC50 of less than 600 nM. In turn, `CCc1cccc2cc(O)cc(-c3ncc4c(N5CC6CCC(C5)N6)nc(N5CC(CN6CCC(CC7CN(c8cc([C@H](C(=O)N9C[C@H](O)C[C@H]9C(=O)N[C@@H](C)c9ccc(-c%10scnc%10C)cc9)C(C)C)on8)C7)CC6)C5)nc4c3F)c12` [Compound 182, (2S,4R)-1-[(2R)-2-(3-{3-[(1-{[1-(4-{3,8-diazabicyclo[3.2.1]octan-3-yl}-7-(8-ethyl-3-hydroxynaphthalen-1-yl)-8-fluoropyrido[4,3-d]pyrimidin-2-yl)azetidin-3-yl]methyl}piperidin-4-yl)methyl]azetidin-1-yl}-1,2-oxazol-5-yl)-3-methylbutanoyl]-4-hydroxy-N-[(1S)-1-[4-(4-methyl-1,3-thiazol-5-yl)phenyl]ethyl]pyrrolidine-2-carboxamide] showed a Dmax of 20 to 60% and a DC50 of less than 600 nM. For `C#Cc1c(F)ccc2cc(O)cc(-c3ncc4c(N5CC6CCC(C5)N6)nc(OCCN5CCC(CCOc6cc([C@@H](C(=O)N7C[C@H](O)C[C@H]7C(=O)N[C@@H](C)c7ccc(-c8scnc8C)cc7)C(C)C)on6)CC5)nc4c3F)c12` [Compound 174, (2S,4R)-1-[(2S)-2-{3-[2-(1-{2-[(4-{3,8-diazabicyclo[3.2.1]octan-3-yl}-7-(8-ethynyl-7-fluoro-3-hydroxynaphthalen-1-yl)-8-fluoropyrido[4,3-d]pyrimidin-2-yl)oxy]ethyl}piperidin-4-yl)ethoxy]-1,2-oxazol-5-yl}-3-methylbutanoyl]-4-hydroxy-N-[(1S)-1-[4-(4-methyl-1,3-thiazol-5-yl)phenyl]ethyl] pyrrolidine-2-carboxamide], in that order: 80 to 100% and less than 600 nM.

As usually defined, the Dmax is the greatest extent of degradation seen. A lower Dmax goes with a partial loss of target. Usually DC50 stands for the midpoint of the concentration-degradation curve. Low readings indicate degradation at low concentration, high ones degradation only at high concentration.
